Read-outs that look alike come from different tables or passages of the source.
Experiments:
[1] = target: human dopamine transporter; set-up: method as in PMID 28824464; details: human dopamine transporter overexpressed system; read-out: Ki for inhibition of dopamine uptake; cited from earlier work
UGT2B7 = UGT2B7 (Homo sapiens, UniProt P16662); test: Inhibition of UGT2B7-catalyzed naloxone 3-β-D-glucuronidation in human liver microsomes; assay type: in vitro ADME
Experimental: The inhibitory effect of APINACA and typical UGT inhibitors on UGT1A1, UGT1A3, UGT1A4, UGT1A6, UGT1A9, and UGT2B7 were evaluated following our previous method by LC–MS/MS after incubation of ultrapooled human liver microsomes with a cocktail of UGT substrates [44]. […] The reactions were initiated by adding UDPGA, and the incubation continued for 60 min at 37 °C in a shaking water bath. The reactions were terminated by adding 50 μL of ice-cold acetonitrile containing internal standards (propofol glucuronide for chenodeoxycholic acid 24-acyl-β-glucuronide and mycophenolic acid glucuronide; and meloxicam for SN-38 glucuronide, trifluoperazine glucuronide, N-acetylserotonin β-D-glucuronide, and naloxone 3-β-D-glucuronide). The incubation mixtures were centrifuged at 13,000× g for 8 min at 4 °C. Next, 50 μL of each supernatant of A and B set was mixed, and aliquots (5 μL) were analyzed by LC–MS/MS. All assays were performed in triplicate, and the average values were used in calculations.
To measure the time-dependent inhibition, human liver microsomes were preincubated with the various concentrations of APINACA (final concentrations of 0.1–100 μM) and UDPGA for 30 min at 37 °C. Next, the reaction mixtures were incubated with UGT probe substrate cocktail sets for 60 min at 37 °C. The control reaction was performed by adding methanol instead of the test compounds.

OAT3 = target: T1, OAT3 (Homo sapiens, UniProt Q8TCC7); test: Uptake of [3-H]estrone-3-sulfate in HEK293-OAT3 cells; assay type: in vitro ADME
T1 construct: host or cells: HEK293 (transient overexpression)
T1 sequence (Q8TCC7 1-542): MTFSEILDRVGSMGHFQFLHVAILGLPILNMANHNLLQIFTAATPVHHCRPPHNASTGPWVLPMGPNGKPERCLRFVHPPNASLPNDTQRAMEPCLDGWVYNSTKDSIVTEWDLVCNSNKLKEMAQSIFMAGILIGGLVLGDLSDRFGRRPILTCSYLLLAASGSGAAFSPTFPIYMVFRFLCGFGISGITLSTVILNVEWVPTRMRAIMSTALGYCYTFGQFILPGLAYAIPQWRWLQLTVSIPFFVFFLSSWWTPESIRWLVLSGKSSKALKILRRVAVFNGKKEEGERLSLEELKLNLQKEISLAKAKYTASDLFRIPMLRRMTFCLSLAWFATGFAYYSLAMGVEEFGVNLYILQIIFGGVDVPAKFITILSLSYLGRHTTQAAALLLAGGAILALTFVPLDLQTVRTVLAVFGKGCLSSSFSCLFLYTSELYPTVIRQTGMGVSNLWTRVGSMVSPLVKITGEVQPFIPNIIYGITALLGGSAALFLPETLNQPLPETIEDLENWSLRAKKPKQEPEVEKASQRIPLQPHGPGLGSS
Experimental: The concentrations and probe substrates were selected as follows: 0.1 μM [3-H]MPP^+ (for OCT1 and OCT2), 0.1 μM [3-H]PAH (for OAT1), 0.1 μM [3-H]ES (for OAT3 and OATP1B1), and 0.1 μM [3-H]EG (for OATP1B3).
(§1) 1.1 (Systat Software, Inc.).

CYP3A4 = CYP3A4 (Homo sapiens, UniProt P08684); test: Inhibition of CYP3A4-mediated midazolam 1′-hydroxylase in ultrapooled human liver microsomes; assay type: in vitro ADME; details: for IC50: CYP3A4 midazolam 1′-hydroxylase
Sequence of CYP3A4 (P08684 2-503): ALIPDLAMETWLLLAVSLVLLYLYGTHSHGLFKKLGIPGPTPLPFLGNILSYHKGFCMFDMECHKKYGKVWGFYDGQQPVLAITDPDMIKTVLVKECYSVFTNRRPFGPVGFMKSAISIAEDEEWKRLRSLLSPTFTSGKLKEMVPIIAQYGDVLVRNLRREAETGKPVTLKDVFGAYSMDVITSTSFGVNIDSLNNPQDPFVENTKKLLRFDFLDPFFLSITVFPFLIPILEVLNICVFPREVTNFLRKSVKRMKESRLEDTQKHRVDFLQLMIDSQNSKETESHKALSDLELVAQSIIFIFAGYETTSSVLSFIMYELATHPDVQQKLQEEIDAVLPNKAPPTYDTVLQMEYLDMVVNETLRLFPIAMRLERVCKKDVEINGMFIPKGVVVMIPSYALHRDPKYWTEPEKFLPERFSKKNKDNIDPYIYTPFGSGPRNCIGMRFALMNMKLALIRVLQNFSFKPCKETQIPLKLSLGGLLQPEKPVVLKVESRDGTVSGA
Experimental: The inhibitory potentials (IC50 values) of APINACA and typical CYP inhibitors on CYP 1A2, 2A6, 2C8, 2C9, 2C19, 2D6, and 3A4 activities in pooled human liver microsomes were evaluated following our previous method using a cocktail of CYP substrates, followed by LC–MS/MS [43]. […] After 3 min of preincubation at 37 °C, the reaction mixtures were incubated for 15 min at 37 °C with the addition of NADPH in a shaking water bath. The reaction was stopped by adding 100 μL of ice cold methanol containing internal standards (d9-1′-hydroxybufuralol for 1′-hydroxybufuralol, 4′-hydroxydiclofenac, 7-hydroxycoumarin, 1′-hydroxymidazolam, and 4′-hydroxymephenytoin; ^13C2, ^15N-acetaminophen for acetaminophen and N-desethylamodiaquine). The incubation mixtures were centrifuged at 13,000× g for 8 min at 4 °C, and 50 μL of each supernatant was diluted with 50 μL of water. Aliquots (5 μL) of the diluted supernatants were analyzed by LC–MS/MS. All assays were performed in triplicate, and the average values were used for subsequent calculations.
To measure the time-dependent inhibition, human liver microsomes were preincubated with the various concentrations of APINACA (final concentrations of 0.1−100 μM) and NADPH for 30 min at 37 °C. Next, the reaction mixtures were incubated with a seven-CYP probe substrate cocktail or bupropion for 15 min at 37 °C. The control reaction was performed by adding methanol instead of the test compounds.
The column and autosampler temperatures were 40 °C and 4 °C, respectively.
The data were processed using Mass Hunter software (Agilent Technologies).
as §1

[2] = blood samples of three driving under the influence of drugs cases; cited from earlier work
OCT2 = target: T2, OCT2 (Homo sapiens, UniProt O15244); test: Uptake of [3-H]methyl-4-phenylpyridinium in HEK293-OCT2 cells; assay type: in vitro ADME
T2 construct: host or cells: HEK293 (transient overexpression)
T2 sequence (O15244 1-555): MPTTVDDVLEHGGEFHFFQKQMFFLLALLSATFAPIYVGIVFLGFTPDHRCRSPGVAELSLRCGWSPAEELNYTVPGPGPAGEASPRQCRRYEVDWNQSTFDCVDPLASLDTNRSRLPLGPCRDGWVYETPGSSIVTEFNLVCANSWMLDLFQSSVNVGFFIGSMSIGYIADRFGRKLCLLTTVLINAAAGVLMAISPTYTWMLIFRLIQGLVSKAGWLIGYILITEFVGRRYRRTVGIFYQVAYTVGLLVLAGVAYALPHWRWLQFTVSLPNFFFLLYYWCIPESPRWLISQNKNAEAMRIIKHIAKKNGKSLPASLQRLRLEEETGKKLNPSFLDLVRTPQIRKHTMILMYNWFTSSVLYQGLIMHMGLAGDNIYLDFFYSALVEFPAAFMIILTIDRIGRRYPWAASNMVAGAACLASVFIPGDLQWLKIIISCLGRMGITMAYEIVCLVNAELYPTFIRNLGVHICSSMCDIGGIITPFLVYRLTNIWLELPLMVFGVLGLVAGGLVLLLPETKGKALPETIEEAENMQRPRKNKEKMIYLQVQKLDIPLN
Experimental: To examine the effects of APINACA and typical inhibitors on transporter activity, the uptake of a probe substrate into HEK293 cells overexpressing the respective solute carrier transporters was measured in the presence of APINACA (final concentrations of 0–250 μM) or typical inhibitors for 5 min. The concentrations and probe substrates were selected as follows: 0.1 μM [3-H]MPP^+ (for OCT1 and OCT2), 0.1 μM [3-H]PAH (for OAT1), 0.1 μM [3-H]ES (for OAT3 and OATP1B1), and 0.1 μM [3-H]EG (for OATP1B3).
12.5 (Systat Software, Inc.; San Jose, CA, USA). […] 1.1 (Systat Software, Inc.).

P-glycoprotein (P-gp) = P-glycoprotein (P-gp) (Homo sapiens, UniProt P08183); test: B to A transport of [3-H]digoxin in LLC-PK1-MDR1 cells
Sequence of P-glycoprotein (P-gp) (P08183 whole entry): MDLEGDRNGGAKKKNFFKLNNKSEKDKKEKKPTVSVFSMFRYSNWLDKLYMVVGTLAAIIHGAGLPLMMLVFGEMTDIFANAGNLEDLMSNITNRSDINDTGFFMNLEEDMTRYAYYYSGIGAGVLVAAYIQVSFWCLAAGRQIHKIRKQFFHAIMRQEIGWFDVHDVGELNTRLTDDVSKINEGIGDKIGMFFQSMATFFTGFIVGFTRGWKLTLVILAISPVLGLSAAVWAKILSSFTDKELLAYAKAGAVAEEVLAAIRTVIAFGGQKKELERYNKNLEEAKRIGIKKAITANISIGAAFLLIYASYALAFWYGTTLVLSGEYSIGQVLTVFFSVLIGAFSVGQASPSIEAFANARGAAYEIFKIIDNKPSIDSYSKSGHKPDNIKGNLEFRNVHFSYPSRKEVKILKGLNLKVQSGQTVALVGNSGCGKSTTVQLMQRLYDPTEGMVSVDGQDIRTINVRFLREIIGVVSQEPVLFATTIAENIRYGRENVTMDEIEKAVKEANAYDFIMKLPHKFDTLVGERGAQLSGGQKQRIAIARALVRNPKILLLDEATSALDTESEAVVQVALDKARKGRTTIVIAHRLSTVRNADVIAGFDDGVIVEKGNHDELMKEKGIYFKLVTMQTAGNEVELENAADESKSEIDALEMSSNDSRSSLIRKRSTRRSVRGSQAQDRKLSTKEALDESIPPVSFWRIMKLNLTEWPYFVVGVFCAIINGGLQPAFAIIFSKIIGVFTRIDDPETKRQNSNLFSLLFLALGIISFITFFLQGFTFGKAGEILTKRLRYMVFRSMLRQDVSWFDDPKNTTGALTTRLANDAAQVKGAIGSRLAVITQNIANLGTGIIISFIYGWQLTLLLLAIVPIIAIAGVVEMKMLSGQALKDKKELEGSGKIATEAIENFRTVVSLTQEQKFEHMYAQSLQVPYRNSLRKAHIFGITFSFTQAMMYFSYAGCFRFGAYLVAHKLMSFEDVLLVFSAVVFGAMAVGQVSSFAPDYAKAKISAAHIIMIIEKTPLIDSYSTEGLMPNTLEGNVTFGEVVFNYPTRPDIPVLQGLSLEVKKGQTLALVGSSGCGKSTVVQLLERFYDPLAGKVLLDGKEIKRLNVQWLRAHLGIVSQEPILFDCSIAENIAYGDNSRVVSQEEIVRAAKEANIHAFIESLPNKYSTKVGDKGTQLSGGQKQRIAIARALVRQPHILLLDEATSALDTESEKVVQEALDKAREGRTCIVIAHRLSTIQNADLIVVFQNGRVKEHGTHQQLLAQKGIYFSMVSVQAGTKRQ
Experimental: The cells were seeded onto filter membranes at a density of 2 × 10^5 cells/well for 5 days with TEER values over 450 Ω·cm^2. The B to A transport of 0.1 μM [3-H]digoxin in LLC-PK1-MDR1 cells was measured by adding 1.5 mL of HBSS containing APINACA (final concentrations of 0–100 μM) on the basal side and by adding 0.5 mL of HBSS without APINACA on the apical side of the insert using protocols identical to those described above.
as §1

Sequence of UGT2B7 (P16662 24-529): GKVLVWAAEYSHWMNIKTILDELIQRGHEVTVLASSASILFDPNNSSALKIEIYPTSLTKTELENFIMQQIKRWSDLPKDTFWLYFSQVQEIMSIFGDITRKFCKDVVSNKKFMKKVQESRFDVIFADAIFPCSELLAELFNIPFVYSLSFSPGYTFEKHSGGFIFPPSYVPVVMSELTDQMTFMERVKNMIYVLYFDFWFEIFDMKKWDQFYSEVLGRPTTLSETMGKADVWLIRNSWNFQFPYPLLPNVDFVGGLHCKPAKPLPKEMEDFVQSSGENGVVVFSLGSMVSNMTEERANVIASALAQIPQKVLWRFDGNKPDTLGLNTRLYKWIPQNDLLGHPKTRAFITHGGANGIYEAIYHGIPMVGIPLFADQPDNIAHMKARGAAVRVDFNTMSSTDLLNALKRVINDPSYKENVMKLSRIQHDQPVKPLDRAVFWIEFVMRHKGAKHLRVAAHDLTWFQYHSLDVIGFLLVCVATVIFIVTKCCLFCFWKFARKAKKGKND

In the case of `CCCCCn1nc(C(=O)NC23CC4CC(CC(C4)C2)C3)c2ccccc21` [APINACA, N-(1-adamantyl)-1-pentyl-1H-indazole-3-carboxamide], the Ki [1] is listed as 4.6 µM, the IC50 (UGT2B7) is listed as over 100 µM and the IC50 (UGT2B7; read-out: IC50 UGT2B7 naloxone 3-β-D-glucuronidation, with 30-min preincubation, pooled human liver microsomes, 30-min preincubation with UDPGA (○)) is listed as over 100 µM. It also gave an IC50 (OAT3) of over 250 µM, an IC50 (CYP3A4; IC50 (μM) No Preincubation, 2.5 μM midazolam, no preincubation) of 16.9 µM and an IC50 (CYP3A4; IC50 (μM) With Preincubation, 30-min preincubation with NADPH) of 4.2 µM. The “fold lower IC50 of CYP3A4 midazolam 1′-hydroxylase after 30-min preincubation than with no preincubation” value (CYP3A4; NADPH) was “ca. 4 fold”, the blood concentrations [2] was 0.66 to 67.1 nM and the IC50 (OCT2) was over 250 µM. The IC50 (P-glycoprotein (P-gp)) was over 100 µM.

— publication PMC6720883, “In Vitro Inhibitory Effects of APINACA on Human Major Cytochrome P450, UDP-Glucuronosyltransferase Enzymes, and Drug Transporters” (Molecules, 2019)
